Test results taken from US8735375B2, “Therapeutic compositions” (Leo Laboratories Limited, priority 2005, dated 2014).

Test: Stability of I3A isoforms in the assay solvent systems over 72 h
Format: physicochemical
Method: The stability of […] isoforms 'a', 'b' and 'c' in the three sample systems over 72 h (equivalent to the maximum possible length of time the samples might be held in the autosampler during a long HPLC analytical run) was confirmed as follows. Standards of the three isoforms of […] The standards were then each divided into three equal volumes and placed at 2-8° C., room temperature and 40° C. for 72 h and were then again analysed by HPLC.

[1] = Acetonitrile/Citrate buffer (pH 3), 72 h 2-8° C.
[2] = Acetonitrile/Citrate buffer (pH 3), 72 h 40° C.
[3] = Acetonitrile/Citrate buffer (pH 3), 72 h RTP
[4] = Acetonitrile/Citrate buffer (pH 3), Time 0 h
[5] = Acetonitrile/Sodium acetate buffer (pH 4.5), 72 h 2-8° C.
[6] = Acetonitrile/Sodium acetate buffer (pH 4.5), 72 h 40° C.
[7] = Acetonitrile/Sodium acetate buffer (pH 4.5), 72 h RTP
[8] = Acetonitrile/Sodium acetate buffer (pH 4.5), Time 0 h

| Compound | % ‘a’ (Acetonitrile, 72 h 2-8° C.) [%] | % ‘b’ (Acetonitrile, 72 h 2-8° C.) [%] | % ‘c’ (Acetonitrile, 72 h 2-8° C.) [%] | % ‘a’ (Acetonitrile, 72 h 40° C.) [%] | % ‘b’ (Acetonitrile, 72 h 40° C.) [%] | % ‘c’ (Acetonitrile, 72 h 40° C.) [%] | % ‘a’ (Acetonitrile, 72 h RTP) [%] | % ‘b’ (Acetonitrile, 72 h RTP) [%] | % ‘c’ (Acetonitrile, 72 h RTP) [%] | % ‘a’ (Acetonitrile, Time 0 h) [%] | % ‘b’ (Acetonitrile, Time 0 h) [%] | % ‘c’ (Acetonitrile, Time 0 h) [%] | % ‘a’ [1] [%] | % ‘b’ [1] [%] | % ‘c’ [1] [%] | % ‘a’ [2] [%] | % ‘b’ [2] [%] | % ‘c’ [2] [%] | % ‘a’ [3] [%] | % ‘b’ [3] [%] | also measured |
| --- | --- | --- | --- | --- | --- | --- | --- | --- | --- | --- | --- | --- | --- | --- | --- | --- | --- | --- | --- | --- | --- |
| CC=C(C)C(=O)OC1C(CO)=CC2C(=O)C3(C=C(C)C(O)C13O)C(C)CC1C2C1(C)C (stereo not drawn) [Isoform ‘a’, ingenol-5-angelate] | 90.63 | 5.71 | 2.55 | 16.36 | 47.01 | 35.74 | 86.58 | 7.8 | 3.65 | 96.82 | 2.24 | 0.29 | 98.31 | 1.46 | 0 | 98.13 | 1.79 | 0 | 98.84 | 1.08 | % ‘c’ [3]: 0%; % ‘a’ [4]: 97.91%; % ‘b’ [4]: 1.63%; % ‘c’ [4]: 0%; % ‘a’ [5]: 96.47%; % ‘b’ [5]: 2.83%; % ‘c’ [5]: 0%; % ‘a’ [6]: 82.51%; % ‘b’ [6]: 16.62%; % ‘c’ [6]: 0%; % ‘a’ [7]: 95.25%; % ‘b’ [7]: 4.22%; % ‘c’ [7]: 0%; % ‘a’ [8]: 96.65%; % ‘b’ [8]: 2.16%; % ‘c’ [8]: 0.23% |
| CC=C(C)C(=O)OCC1=CC2C(=O)C3(C=C(C)C(O)C3(O)C1O)C(C)CC1C2C1(C)C (stereo not drawn) [Isoform ‘c’, ingenol-20-angelate] | 1.62 | 0 | 96.69 | 0.6 | 0 | 97.09 | 1.55 | 0.27 | 97.19 | 1.28 | 0.41 | 97.30 | 0.87 | 0.16 | 98.84 | 0 | 0 | 98.7 | 0.53 | 0 | % ‘c’ [3]: 99.24%; % ‘a’ [4]: 1.12%; % ‘b’ [4]: 0.20%; % ‘c’ [4]: 98.41%; % ‘a’ [5]: 1.41%; % ‘b’ [5]: 0.27%; % ‘c’ [5]: 97.17%; % ‘a’ [6]: 0%; % ‘b’ [6]: 0%; % ‘c’ [6]: 97.75%; % ‘a’ [7]: 0.83%; % ‘b’ [7]: 0%; % ‘c’ [7]: 97.97%; % ‘a’ [8]: 1.34%; % ‘b’ [8]: 0.45%; % ‘c’ [8]: 97.02% |
